Drawing on ChEMBL document CHEMBL1129086, “Design of a novel cognitive enhancer (8S, 10aS)-8-carbamoyl-1,2,3,6,7,8,9,10a-octahydro-5H,10H-pyrrolo[1,2-a][1,4]diazocin-5,10-dione” (1996), this text covers Activity and Response for seven molecules.

The species named for test [1] is Mus musculus. The experiment in a line: Compound was tested for motor impairment in mice by neuropharmacological test; No effect. It counts as functional, organism-based.
The species named for test [2] is Mus musculus. Kind of test: Compound was tested for myorelaxant action in mice by neuropharmacological test; No effect. Type of test: functional, organism-based.
The species named for test [3] is Mus musculus. The experiment in a line: Compound was tested for psychomotor activation on CNS in mice by neuropharmacological test; No effect. It counts as functional, organism-based. As to conditions: Central nervous system.
The species named for test [4] is Mus musculus. Kind of test: Compound was tested for sedative action in mice by neuropharmacological test; No effect. It counts as functional, organism-based.
Test [5] has as its system Rattus norvegicus. The experiment in a line: Antiamnesic potency was discovered in the passive avoidance test in rats at a dose 0.1 mg/kg (p<0.05); Amnesia reversed. Type of test: functional, organism-based. Also on record: dose 0.1 mg/kg.
For test [6], the system named is Rattus norvegicus. The experiment in a line: Antiamnesic potency was discovered in the passive avoidance test in rats at a dose 1.0 mg/kg (p<0.05); Amnesia reversed. Type of test: functional, organism-based. On the set-up: dose 1 mg/kg.
Test [7] deals with Rattus norvegicus. Kind of test: Compound was tested for amnesia response against scopolamine induced rats by passive avoidance test at a dose 1 mg/kg. Type of test: functional.

Active and inactive are the calls of the source. The rule behind the calls is not given here. Where a SMILES comes first, the peptide text is derived from it. Bridges are numbered along the chain shown (N, C = ends). [ ]: non-standard residue; d: D form. pGlu = O=C1CC[C@@H](C(=O)O)N1

In the case of `NC(=O)[C@@H]1CCCN1C(=O)[C@H](Cc1c[nH]cn1)NC(=O)[C@@H]1CCC(=O)N1`, the result in test [1], in test [2], in test [3] and in test [4] was inactive.
Regarding `O=C(COC(=O)[C@@H]1CCC(=O)N2CCC[C@H]2C(=O)N1)NC(c1ccccc1)c1ccccc1`, the outcome in test [1], in test [2], in test [3] and in test [4] was inactive.
As for `CC(C)(C)OC(=O)N[C@@H](CCC(=O)O)C(=O)O`, the result in test [1], in test [2], in test [3] and in test [4] was inactive.
For `CC(C)(C)OC(=O)N[C@@H](CCC(=O)O)C(=O)OCC(=O)NC(c1ccccc1)c1ccccc1`, the result in test [1], in test [2], in test [3] and in test [4] was inactive.
Take `NC(=O)CC[C@H](NC(=O)[C@@H]1CCC(=O)N1)C(=O)N1CCC[C@H]1C(N)=O` ([pGlu]-Gln-Pro-NH2): the result in test [1], in test [2], in test [3] and in test [4] was inactive.
For `NC(=O)[C@@H]1CCC(=O)N2CCC[C@H]2C(=O)N1` (Pro-Glu-NH2; lactam N-2), the outcome in test [1], in test [2], in test [3] and in test [4] was inactive. For the same molecule, the Activity result in test [5] and in test [6] was “Amnesia reversed” throughout. In test [7], this molecule had a Response of 83%.
As to `CC(C)(C)OC(=O)N[C@@H](CCC(=O)N1CCC[C@H]1C(=O)O)C(=O)OCC(=O)NC(c1ccccc1)c1ccccc1`, the outcome in test [1], in test [2], in test [3] and in test [4] was inactive.
